Among the test systems are CAKI-1 renal; LOX IMVI melanoma; MALME-3M melanoma; OVCAR-5 ovarian; OVCAR-8 ovarian; PC-3 prostate; SF-268 CNS; SNB-19 CNS; SNB-75 CNS; UACC-257 melanoma.
Holding throughout (assay): growth of human tumour cells (NCI), 48 h

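Exposure lasted 48 hours, with cells grown in 96-well plates and compounds tested at five concentrations. TGI marks complete inhibition of growth.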

Turning to `CSc1cc(Cl)c(C)cc1S(=O)(=O)NC(=O)NNc1ccc(F)cc1`, the TGI with CAKI-1 renal, in the assay with LOX IMVI melanoma, with MALME-3M melanoma, in the assay with OVCAR-5 ovarian, with OVCAR-8 ovarian and with PC-3 prostate was over 100 µM each time. Moreover, the TGI in the assay on SF-268 CNS, in the assay on SNB-19 CNS and with SNB-75 CNS was over 100 µM throughout.

For `CCOC(=O)/C=C(/C(=O)OCC)n1cc(C)c(=O)n(Cc2cnnn2COCCOC(C)=O)c1=O`, the TGI turned out to be 11 µM in the assay with CAKI-1 renal; 32 µM in the assay on LOX IMVI melanoma; 13.3 µM in the assay on MALME-3M melanoma; 36.9 µM in the assay on OVCAR-5 ovarian; 29.1 µM with OVCAR-8 ovarian; 37.7 µM in the assay on PC-3 prostate. Moreover, the TGI in the assay on SF-268 CNS was 42.5 µM; in the assay with SNB-19 CNS, over 100 µM; with SNB-75 CNS, over 67.2 µM; in the assay on UACC-257 melanoma it was 28.6 µM.

As for `O=P(O)(O)c1ccc(-c2ccc(I)cc2)cc1`, the TGI with CAKI-1 renal, in the assay with LOX IMVI melanoma, in the assay with MALME-3M melanoma, with OVCAR-5 ovarian, in the assay on OVCAR-8 ovarian and in the assay on PC-3 prostate was over 100 µM in each case. For the same molecule, the TGI in the assay on SF-268 CNS, in the assay on SNB-19 CNS, in the assay with SNB-75 CNS and in the assay on UACC-257 melanoma was over 100 µM throughout.

In the case of `Nc1nc(Cl)cc(OCC2(CO)CCCC2)n1`, the TGI with LOX IMVI melanoma, in the assay on MALME-3M melanoma, in the assay with OVCAR-5 ovarian, in the assay on OVCAR-8 ovarian, in the assay with PC-3 prostate and in the assay with SF-268 CNS was over 100 µM in each case. For the same molecule, the TGI in the assay on SNB-19 CNS, in the assay on SNB-75 CNS and with UACC-257 melanoma was over 100 µM throughout.

Turning to `Clc1cc(-c2ccccc2)nc(Nc2nc3ccccc3[nH]2)n1`, the TGI in the assay with CAKI-1 renal is 3.95 µM; with MALME-3M melanoma, 69.1 µM; in the assay on OVCAR-5 ovarian it was over 100 µM; with OVCAR-8 ovarian, 54.2 µM; in the assay with PC-3 prostate it was over 100 µM; in the assay with SF-268 CNS, 80.9 µM. Further, the TGI with SNB-19 CNS was over 100 µM; with SNB-75 CNS, over 100 µM; in the assay with UACC-257 melanoma it was 44 µM.

With `COc1ccc2c(c1)CC[C@@H]1C2CC[C@]2(C)C(=O)N(CCN(C)C)C(=O)CC12` (some centres not stated), the TGI with CAKI-1 renal, in the assay with MALME-3M melanoma, with OVCAR-5 ovarian, with OVCAR-8 ovarian, with PC-3 prostate and in the assay on SF-268 CNS was over 100 µM in each case. Besides, the TGI in the assay with SNB-19 CNS, in the assay on SNB-75 CNS and in the assay with UACC-257 melanoma was over 100 µM each time.

As for `COc1cccc2c1NC(=O)Cc1c-2[nH]c2ccccc12`, the TGI with CAKI-1 renal, in the assay with LOX IMVI melanoma, in the assay with MALME-3M melanoma, in the assay with OVCAR-5 ovarian, in the assay on PC-3 prostate and in the assay on SF-268 CNS was over 100 µM each time. The TGI in the assay with SNB-75 CNS is over 100 µM.

Consider `Cc1ncc([N+](=O)[O-])n1CC[N+](C)([O-])CCCCn1ccnc1[N+](=O)[O-]` (configuration not stated), for which the TGI with CAKI-1 renal, in the assay on LOX IMVI melanoma, with MALME-3M melanoma, with OVCAR-5 ovarian, with OVCAR-8 ovarian and with PC-3 prostate was over 100 µM throughout. Moreover, the TGI in the assay with SF-268 CNS, in the assay with SNB-75 CNS and with UACC-257 melanoma was over 100 µM throughout.

Regarding `COC1=C[C@]2(CCC(=O)O2)[C@@H]2Cc3ccccc3[C@H](O)[C@@H]2C1=O`, the TGI in the assay with CAKI-1 renal was over 100 µM; in the assay with LOX IMVI melanoma, 87.3 µM; with MALME-3M melanoma, 50.2 µM; in the assay on OVCAR-5 ovarian, over 100 µM; in the assay on OVCAR-8 ovarian it was over 100 µM; in the assay on PC-3 prostate, over 100 µM. Further, the TGI in the assay with SF-268 CNS is over 100 µM; in the assay on SNB-19 CNS, over 100 µM; in the assay with UACC-257 melanoma, 62 µM.

With `Cc1ccc(S(=O)(=O)N2CCC[C@@H]2C(=O)O[C@@H]2CCC3CC=CC32)cc1` (some centres not stated), the TGI was 38.9 µM in the assay on LOX IMVI melanoma; 90 µM in the assay on MALME-3M melanoma; over 100 µM with OVCAR-5 ovarian; over 100 µM in the assay on OVCAR-8 ovarian; 69.6 µM in the assay on PC-3 prostate; 75 µM in the assay with SF-268 CNS. Moreover, the TGI with SNB-19 CNS is over 100 µM; with SNB-75 CNS, over 100 µM; in the assay with UACC-257 melanoma, 64.4 µM.

For the molecule `O=C(CN1CCCC1=O)CS(=O)(=O)c1ccccc1`, the TGI in the assay with LOX IMVI melanoma, in the assay with MALME-3M melanoma, with OVCAR-5 ovarian, with OVCAR-8 ovarian, with PC-3 prostate and with SF-268 CNS was over 100 µM each time. Besides, the TGI in the assay on SNB-19 CNS, with SNB-75 CNS and in the assay with UACC-257 melanoma was over 100 µM each time.

As for `COc1ccc(-n2c(SC(CN3CCOCC3)CN3CCCC3=O)nc3ccccc3c2=O)cc1` (configuration not stated), the TGI in the assay with CAKI-1 renal, with MALME-3M melanoma, in the assay with OVCAR-5 ovarian, in the assay with OVCAR-8 ovarian, in the assay on PC-3 prostate and in the assay on SF-268 CNS was over 100 µM throughout. Further, the TGI in the assay with SNB-19 CNS, with SNB-75 CNS and in the assay on UACC-257 melanoma was over 100 µM in each case.

In the case of `Nn1c(Nc2ccc(S(N)(=O)=O)cc2)nnc(/C=C/c2c(O)ccc3ccccc23)c1=O`, the TGI was 49.6 µM with CAKI-1 renal; 27.1 µM in the assay on LOX IMVI melanoma; 49.7 µM in the assay with MALME-3M melanoma; 56.1 µM in the assay on OVCAR-5 ovarian; 22.6 µM in the assay with OVCAR-8 ovarian; over 100 µM in the assay on PC-3 prostate. Besides, the TGI with SF-268 CNS is over 100 µM; in the assay on SNB-19 CNS, over 100 µM; with UACC-257 melanoma it was 92.8 µM.

For the molecule `Cn1cnc(N2CCCC2)c(C#N)c1=S`, the TGI in the assay on CAKI-1 renal, with LOX IMVI melanoma, in the assay on MALME-3M melanoma, with OVCAR-5 ovarian, in the assay on OVCAR-8 ovarian and in the assay on PC-3 prostate was over 100 µM each time. Also, the TGI in the assay with SF-268 CNS, in the assay with SNB-19 CNS and in the assay with UACC-257 melanoma was over 100 µM each time.

`Cc1nnc(N)nc1/C=C\c1ccc(Cl)cc1Cl`: the TGI was over 100 µM in the assay with CAKI-1 renal; over 100 µM with LOX IMVI melanoma; 59.3 µM with MALME-3M melanoma; over 100 µM in the assay on OVCAR-5 ovarian; over 100 µM with OVCAR-8 ovarian; over 100 µM in the assay on PC-3 prostate. For the same molecule, the TGI in the assay on SF-268 CNS, in the assay with SNB-19 CNS and in the assay with UACC-257 melanoma was over 100 µM throughout.

With `Fc1ccc(-c2sc(-c3ccsc3)cc2Cc2ccsc2)cc1`, the TGI in the assay on CAKI-1 renal, with LOX IMVI melanoma, in the assay with MALME-3M melanoma, in the assay on OVCAR-8 ovarian, in the assay on PC-3 prostate and in the assay with SF-268 CNS was over 10 µM each time. Moreover, the TGI in the assay with SNB-75 CNS and with UACC-257 melanoma was over 10 µM throughout.

Take `CC#C[C@]1(O)CCC2[C@@H]3CCC4=CC(=O)CCC4=C3[C@@H](c3ccc(N(C)C)cc3)C[C@@]21C` (some centres not stated): the TGI is 33 µM with CAKI-1 renal; 33.7 µM in the assay with LOX IMVI melanoma; 42 µM with MALME-3M melanoma; 79.1 µM with OVCAR-5 ovarian; over 100 µM in the assay with OVCAR-8 ovarian; 88.7 µM in the assay on PC-3 prostate. Also, the figures for the TGI in the assay on SF-268 CNS, with SNB-19 CNS and with UACC-257 melanoma were 27.6 µM, 98.3 µM and 36.5 µM, respectively.

`Cc1cc2c(c(C(=O)NCC(=O)N[C@@H](C)C(=O)OCc3ccccc3)c1)Oc1c(cc(C)cc1C(=O)NCC(=O)N[C@@H](C)C(=O)OCc1ccccc1)S2`: the TGI is over 100 µM with CAKI-1 renal; 44.2 µM in the assay with MALME-3M melanoma; over 100 µM in the assay with OVCAR-5 ovarian; over 100 µM in the assay on OVCAR-8 ovarian; over 100 µM in the assay on PC-3 prostate; over 100 µM in the assay with SF-268 CNS. The figures for the TGI with SNB-19 CNS, with SNB-75 CNS and with UACC-257 melanoma were over 100 µM, 46.1 µM and over 100 µM, respectively.

As for `CN(c1ccccc1)S(=O)(=O)c1ccc([N+](=O)[O-])cc1`, the TGI in the assay on CAKI-1 renal, with LOX IMVI melanoma, in the assay on MALME-3M melanoma, in the assay with OVCAR-5 ovarian, in the assay on OVCAR-8 ovarian and with PC-3 prostate was over 100 µM in each case. In addition, the TGI in the assay with SF-268 CNS, in the assay with SNB-19 CNS and in the assay on UACC-257 melanoma was over 100 µM each time.

As to `O=C1c2ccccc2C(=O)N1n1c(Cc2ccc(Cl)cc2)n[nH]c1=O`, the TGI with CAKI-1 renal, in the assay with LOX IMVI melanoma, in the assay with MALME-3M melanoma, with OVCAR-5 ovarian, in the assay with OVCAR-8 ovarian and with PC-3 prostate was over 100 µM each time. Further, the TGI in the assay with SNB-19 CNS, in the assay with SNB-75 CNS and in the assay with UACC-257 melanoma was over 100 µM each time.

Turning to `CC(=O)OCC1OC(N2C(=O)NC(=O)C3C=C4CCCCC4=CC32)CC1OC(C)=O` (configuration not stated), the TGI in the assay with LOX IMVI melanoma, in the assay with MALME-3M melanoma, in the assay with OVCAR-5 ovarian, in the assay with OVCAR-8 ovarian, in the assay on PC-3 prostate and with SF-268 CNS was over 100 µM in each case. Besides, the TGI in the assay on SNB-19 CNS, in the assay on SNB-75 CNS and in the assay with UACC-257 melanoma was over 100 µM each time.

On to `O=c1cc(-c2ccccc2)[nH]c2ncccc12`, for which the TGI with CAKI-1 renal was over 100 µM; with LOX IMVI melanoma, over 100 µM; in the assay with MALME-3M melanoma, over 100 µM; with OVCAR-5 ovarian, over 100 µM; with OVCAR-8 ovarian, 4.01 µM; in the assay with PC-3 prostate it was over 27.9 µM. Also, the TGI in the assay with SF-268 CNS, in the assay with SNB-19 CNS and in the assay on UACC-257 melanoma was over 100 µM in each case.

(Values after PubChem BioAssay (NCI).)
